PubChem BioAssay (NCI)
Several values for one entry are separate records, joined by “and”; a condition that tells them apart may be missing. Identical values can stand only once.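 These data come from cells grown in 96-well plates and exposed to compound for 48 hours at five concentrations. GI50 is the concentration that inhibits growth by half. Definition used: TGI = concentration required for complete inhibition of growth.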

Tests used:
Assay in all cases: NCI-60 cell line screen, 48 h
XF 498 CNS = tested on: XF 498 CNS
SNB-78 CNS = tested on: SNB-78 CNS
DLD-1 colon = tested on: DLD-1 colon
KM20L2 colon = tested on: KM20L2 colon
M19-MEL melanoma = tested on: M19-MEL melanoma
DU-145 prostate = tested on: DU-145 prostate
RXF-631 renal = tested on: RXF-631 renal
MDA-N = tested on: MDA-N

Compound `N#CC(C(=O)Nc1ccccc1)C1=C(Cl)C(=O)c2ccccc2C1=O` (stereo not given) has a TGI (XF 498 CNS) of 30.3 µM, a TGI (SNB-78 CNS) of 45.9 µM and a TGI (DLD-1 colon) of 40.2 µM. The TGI (KM20L2 colon) was 48.9 µM and the TGI (M19-MEL melanoma) was 21.8 µM.
`COc1cc2c(c3c1c(=O)c1ccccc1n3C)C=C([N+](=O)[O-])C(C)(C)O2` was tested, and the TGI (DU-145 prostate) was greater than 100 µM.
`Cc1ccc(-n2c3nc(=O)n(C)c(=O)c-3nc3ccccc32)c(C)c1` was tested, and the TGI (XF 498 CNS) was 26 µM, the TGI (SNB-78 CNS) was 44.5 µM and the TGI (RXF-631 renal) was 23.9 µM. It also gave a TGI (DLD-1 colon) of 39.9 µM, a TGI (KM20L2 colon) of 17.6 µM and a TGI (M19-MEL melanoma) of 3.33 µM.
With `CC(C)(C)OC(=O)N[C@H]1CC(=O)c2ccccc2N(CC(=O)O)C1=O` the TGI (RXF-631 renal) was greater than 100 µM, the TGI (DLD-1 colon) was greater than 100 µM and the TGI (KM20L2 colon) was greater than 100 µM. For the same compound, the TGI (M19-MEL melanoma) was greater than 100 µM.
For `Nc1ncnc2c1c(-c1ccc(Oc3ccccc3)cc1)nn2CC1SSCC1O` (stereo not given), the GI50 (DU-145 prostate) was 4.15 µM and the TGI (DU-145 prostate) was 9.01 µM.
`CC[n+]1c(-c2ccccc2)c2cc(N)ccc2c2ccc(N)cc21` was tested, and the TGI (MDA-N) was 19 µM, the GI50 (DU-145 prostate) was 2 µM and the TGI (DU-145 prostate) was 13.3 µM and 42 µM. It also gave a TGI (KM20L2 colon) of 25.9 µM and a TGI (M19-MEL melanoma) of 10.5 µM.
Compound `Cc1ccccc1Nc1cc(O)c2c(=O)cc(-c3ccccc3)oc2c1` has a GI50 (DU-145 prostate) of 3.78 µM and a TGI (DU-145 prostate) greater than 100 µM.
In the case of `O=C(Nc1ccccc1C(=O)NC(=O)c1ccccc1NC(=O)c1ccccc1)c1ccccc1`, the TGI (XF 498 CNS) is reported as 4.38 µM, the TGI (DLD-1 colon) is reported as 29.7 µM and the TGI (KM20L2 colon) is reported as 15.6 µM.
Work on `COC(=O)[C@]12CC[C@@H](C)[C@H](C)[C@@H]1C1=CC[C@@H]3[C@@]4(C)C(C=O)=C[C@@](C)(COS(C)(=O)=O)C4=CC[C@@]3(C)[C@]1(C)CC2` yielded a GI50 (DU-145 prostate) of 0.317 µM and a TGI (DU-145 prostate) of 1.06 µM.
With `O=c1c2ccccc2nc(-c2cccc(Cl)c2)n1NC1OC(CO)C(O)C(O)C1O` (stereo not given) the TGI (XF 498 CNS) was greater than 100 µM, the TGI (SNB-78 CNS) was greater than 100 µM and the TGI (RXF-631 renal) was greater than 100 µM. For the same compound, the TGI (KM20L2 colon) was greater than 100 µM and the TGI (M19-MEL melanoma) was greater than 100 µM.
`OCC1OC(OC2(CO)OC(CO)C(O)C2O)C(O)C(O)C1O` (stereo not given) showed a GI50 (DU-145 prostate) greater than 100 µM and a TGI (DU-145 prostate) greater than 100 µM.
For `CCN1C(=O)N(CC)C2C1NC(=S)N2/N=C/C=C/c1ccccc1` (stereo not given), the GI50 (DU-145 prostate) was 0.377 µM and the TGI (DU-145 prostate) was greater than 100 µM.
`O=c1[nH]c(=S)[nH]c(O)c1/C=C1\C=Nc2ccccc21` was tested, and the GI50 (DU-145 prostate) was 10.3 µM and the TGI (DU-145 prostate) was 35.4 µM.
`Cc1ccc2ccc3c4ccccc4ccc3c2c1` gave a GI50 (DU-145 prostate) of 34.6 µM and a TGI (DU-145 prostate) greater than 100 µM.
`O=[N+]([O-])c1cccnc1S(=O)(=O)c1ccccc1` showed a TGI (XF 498 CNS) of 25.8 µM, a TGI (SNB-78 CNS) of 44 µM and a TGI (RXF-631 renal) of 8.01 µM. It also gave a TGI (DLD-1 colon) of 7.27 µM, a TGI (KM20L2 colon) of 30.3 µM and a TGI (M19-MEL melanoma) of 27.3 µM.
In the case of `CCOC(=O)c1cc(C(=O)c2ccc(OC)c(OC)c2)n2c1ccc1ccc3cccnc3c12`, the GI50 (DU-145 prostate) is reported as 3.45 µM and the TGI (DU-145 prostate) is reported as greater than 100 µM.
`[O-][n+]1c2cccc(O)c2[n+]([O-])c2cccc(O)c21` was tested, and the TGI (MDA-N) was greater than 100 µM and the TGI (DU-145 prostate) was greater than 100 µM.
`CN(C)CCCOc1ccc(NC2=C(Cl)C(=O)C(Nc3ccc(OCCCN(C)C)cc3)=C(Cl)C2=O)cc1` was tested, and the GI50 (DU-145 prostate) was 0.563 µM and the TGI (DU-145 prostate) was 1.13 µM.
Compound `Oc1cn(-c2ccc(Cl)cc2)nc1-c1n[nH]c(=S)n1-c1ccc(F)cc1` has a GI50 (DU-145 prostate) of 22 µM and a TGI (DU-145 prostate) greater than 100 µM.
In the case of `COC(=O)C1CCC(C)CC1=O` (stereo not given), the TGI (XF 498 CNS) is reported as greater than 100 µM, the TGI (SNB-78 CNS) is reported as greater than 100 µM and the TGI (RXF-631 renal) is reported as greater than 100 µM. It also gave a TGI (DLD-1 colon) greater than 100 µM and a TGI (M19-MEL melanoma) greater than 100 µM.
`C[n+]1cn(CC(=O)c2ccccc2)c(C(N)=O)c1N` was tested, and the TGI (SNB-78 CNS) was greater than 100 µM, the TGI (RXF-631 renal) was greater than 100 µM and the TGI (DLD-1 colon) was greater than 100 µM. For the same compound, the TGI (KM20L2 colon) was greater than 100 µM and the TGI (M19-MEL melanoma) was 63.2 µM.
`OCc1ccc(-c2ccc(-c3ccc(CO)o3)o2)o1` showed a GI50 (DU-145 prostate) greater than 62.4 µM and a TGI (DU-145 prostate) greater than 100 µM.
Work on `C[C@]12CCc3nc(Nc4ccc(O)cc4)sc3C1=CC[C@@H]1[C@@H]2CC[C@]2(C)/C(=N/NC(N)=S)CC[C@@H]12` yielded a GI50 (DU-145 prostate) of 1.64 µM and a TGI (DU-145 prostate) of 3.15 µM.
For `CCCCCCCCCCCCCC(=O)O[C@H]1CC[C@H](NC(=O)[C@H](OC)[C@H](O)[C@@H](O)[C@H](O)/C=C/C(C)C)C(=O)N(C)C1`, the GI50 (XF 498 CNS) was 4.3 nM, the TGI (SNB-78 CNS) was 15 µM and the GI50 (RXF-631 renal) was 2.38 nM. For the same compound, the TGI (RXF-631 renal) was 15 µM and 4.07 µM, the GI50 (DLD-1 colon) was 2.78 nM and the TGI (DLD-1 colon) was 15 µM and > 23.8 µM. For the same compound, the GI50 (KM20L2 colon) was less than 1.5 nM, the TGI (KM20L2 colon) was 15 µM and 3.8 µM and the GI50 (M19-MEL melanoma) was 2.38 nM. For the same compound, the TGI (M19-MEL melanoma) was 15 µM and 3.89 µM.
`O=C1c2cccc3c(N4CCOCC4)ccc(c23)C(=O)N1CCN1CCN(CCCCCN2CCN(CCN3C(=O)c4cccc5c(N6CCOCC6)ccc(c45)C3=O)CC2)CC1` was tested, and the GI50 (DU-145 prostate) was greater than 100 µM and the TGI (DU-145 prostate) was greater than 100 µM.
`CC(C)N(C(=O)C12C3C4C1C1C4(C#N)C3C12C(=O)O)C(C)C` (stereo not given) showed a TGI (XF 498 CNS) greater than 100 µM, a TGI (SNB-78 CNS) greater than 100 µM and a TGI (RXF-631 renal) greater than 100 µM. For the same compound, the TGI (DLD-1 colon) was greater than 100 µM, the TGI (KM20L2 colon) was greater than 100 µM and the TGI (M19-MEL melanoma) was greater than 100 µM.
`COc1ccc(/C=C/C(=O)c2c(-c3ccccc3)nn(C)c(=O)c2N2CCCCC2)cc1` was tested, and the TGI (RXF-631 renal) was greater than 100 µM, the TGI (DLD-1 colon) was 82.6 µM and the TGI (KM20L2 colon) was 33.8 µM. For the same compound, the TGI (M19-MEL melanoma) was 79.3 µM.
Work on `Cc1ccc(C(=O)Nc2ccc(Oc3cc4cnn(C)c4cc3-c3cn[nH]c3)c(F)c2)c(=O)n1-c1ccc(F)cc1` yielded a GI50 (DU-145 prostate) greater than 50 µM and a TGI (DU-145 prostate) greater than 100 µM.
In the case of `N#Cc1c(-c2ccccc2)c(-c2ccccc2)cc2c(=O)c3ccc(Cl)cc3[nH]c12`, the TGI (XF 498 CNS) is reported as greater than 100 µM, the TGI (DLD-1 colon) is reported as greater than 100 µM and the TGI (KM20L2 colon) is reported as greater than 100 µM. For the same compound, the TGI (M19-MEL melanoma) was greater than 100 µM.
`OC1=CN=C(c2ccccc2)Oc2ccccc21` was tested, and the TGI (SNB-78 CNS) was greater than 100 µM, the TGI (RXF-631 renal) was greater than 100 µM and the TGI (DLD-1 colon) was greater than 100 µM. For the same compound, the TGI (KM20L2 colon) was greater than 100 µM and the TGI (M19-MEL melanoma) was greater than 100 µM.
For `CCOC(=O)[C@@H](C)C[C@H](Cc1ccccc1)NC(=O)c1csc([C@@H](C[C@H](C(C)C)N(C)C(=O)CNC(=O)[C@H]2CCCCN2C)OC(C)=O)n1`, the GI50 (DU-145 prostate) was 0.58 µM and the TGI (DU-145 prostate) was greater than 9.17 µM.
`O=C1C2C(C(=O)N1Cc1ccccc1)N(Cc1ccccc1)C(=O)N2Cc1ccccc1` (stereo not given) was tested, and the TGI (XF 498 CNS) was greater than 100 µM, the TGI (SNB-78 CNS) was greater than 100 µM and the TGI (RXF-631 renal) was greater than 100 µM. The TGI (DLD-1 colon) was greater than 100 µM, the TGI (KM20L2 colon) was greater than 100 µM and the TGI (M19-MEL melanoma) was greater than 100 µM.
`O=C1OC(=O)c2c1nc1ccccc1c2-c1ccccc1` showed a TGI (SNB-78 CNS) greater than 100 µM, a TGI (RXF-631 renal) greater than 100 µM and a TGI (DLD-1 colon) greater than 100 µM. It also gave a TGI (KM20L2 colon) greater than 100 µM and a TGI (M19-MEL melanoma) greater than 100 µM.
For `CCN(CC)CCCC(Nc1c2ccc(Cl)cc2nc2ccc(OC)cc12)c1ccc(Cl)cc1` (stereo not given), the GI50 (DU-145 prostate) was 1.52 µM and the TGI (DU-145 prostate) was 3.03 µM.
In the case of `COC(=O)c1ccc(NC(N)=NCCC(C)(C)c2ccc(C(F)(F)F)cc2)nc1`, the GI50 (DU-145 prostate) is reported as 3.44 µM and the TGI (DU-145 prostate) is reported as 13.9 µM.
`NC1=NC(c2ccccc2Cl)c2c(n[nH]c2N)N1` (stereo not given) showed a GI50 (DU-145 prostate) of 61 µM and a TGI (DU-145 prostate) greater than 100 µM.
`CC(C)(C)O/N=C/c1cc(NC(=S)c2ccccc2)ccc1Cl` showed a TGI (MDA-N) of 29.9 µM and a TGI (DU-145 prostate) of 42.1 µM.
